{
  "source": "patent US9573920B2",
  "about": "“Compound, medicine, anti-inflammatory, cosmetic, food and drink, and method for producing compound” (Amino Up Chemical Co., Ltd., priority 2013, dated 2017)",
  "type_in_all_cases": "cell-based, rat",
  "key": {"[1]": {"system": "CINC-2α/β", "test": "cytokine/chemokine array (in vitro), CINC-2α/β", "conditions": "(+) IL-1β 1 nM, Pa5′ 100 μM", "description": "(§1) In like manner with Example 4, liver cells were isolated from male Wistar rats by a collagenase perfusion method. The isolated liver cells were suspended in a medium (similar to that in Example 4) at 1.2×10^6 cells/mL, seeded in 35 mm plastic dishes (similar to those in Example 4) (1 mL/dish), and cultured in an incubator with 5% CO2 at 37° C. After 5 hours, the medium was replaced with fresh WE free of any serum and hormone, and the cells were cultured overnight until before use of the cells for an experiment.\n(§2) On day 1 after the start of the culture, cells were subjected to replacement with fresh WE free of any serum and hormone, and IL-1β (similar to that in Example 4), and Pa5 extracted with methanol in Example 1 or Pa5′ extracted with methanol in Example 2 were added to the medium. The concentrations of IL-1β, Pa5, and Pa5′ in each medium were 1 nM, 20 μM, and 100 μM, respectively (Table 1). Then, the cells were cultured at 37° C., and the medium was collected 3 hours after the start of the culture. The collected medium was centrifuged for 1 minute at 5000 rpm to remove cellular debris, and the supernatant was used in an assay. The supernatant was preserved at −80° C. until performing the assay.\n(§3) The productions of the various inflammatory cytokines/chemokines were measured according to an accompanying protocol using Rat Cytokine Antibody Array (R&D Systems) (http://www.rndsystems.com/product_detail_objectname_ratcytokinearray.aspx) capable of detecting 29 kinds of cytokines/chemokines in Proteome Profiler® Antibody Array. In the measurement, 1 mL of the supernatant of the medium obtained as described above was used.\n(§4) In the above-described method, the 29 kinds of the cytokines/chemokines can be detected at once, and chemiluminescence on the filter of Proteome Profiler Antibody Array increases in proportion to the amount of each cytokine/chemokine. Thus, the chemiluminescence on the filter of Proteome Profiler Antibody Array was detected with LAS3000mini (GE Healthcare), subjected to densitometry analysis, and converted into a numeric value. The densitometry analysis was carried out with reference to http://www.hm6.aitai.ne.jp/˜maxcat/imageJ/technique.html#gels (the heading of “Analyzing Electrophoretic Gels”) using ImageJ software."}, "[2]": {"system": "CINC-3", "test": "cytokine/chemokine array (in vitro), CINC-3", "conditions": "(+) IL-1β 1 nM, Pa5′ 100 μM", "description": "as §1, §2, §3, §4"}, "[3]": {"system": "Fractalkine (CX3CL1)", "test": "cytokine/chemokine array (in vitro), Fractalkine", "conditions": "Pa5′ 100 μM", "description": "as §1, §2, §3, §4"}, "[4]": {"system": "sICAM-1 (CD54)", "test": "cytokine/chemokine array (in vitro), sICAM-1", "conditions": "(+) IL-1β 1 nM, Pa5′ 100 μM", "description": "as §1, §2, §3, §4"}, "[5]": {"system": "MIG (CXCL9)", "test": "cytokine/chemokine array (in vitro), MIG", "conditions": "(+) IL-1β 1 nM, Pa5′ 100 μM", "description": "as §1, §2, §3, §4"}, "[6]": {"system": "VEGF (VEGF-A/Vasculotropin)", "test": "cytokine/chemokine array (in vitro), VEGF", "conditions": "(+) IL-1β 1 nM, Pa5′ 100 μM", "description": "as §1, §2, §3, §4"}, "[7]": {"system": "IL-17", "test": "cytokine/chemokine array (in vitro), IL-17", "conditions": "Pa5′ 100 μM", "description": "as §1, §2, §3, §4"}, "[8]": {"system": "Thymus Chemokine (CXCL7)", "test": "cytokine/chemokine array (in vitro), Thymus Chemokine", "conditions": "Pa5′ 100 μM", "description": "as §1, §2, §3, §4"}, "[9]": {"conditions": "(+) IL-1β 1 nM, 3 hours, (+) alone = 100.0"}, "[10]": {"conditions": "(+) IL-1β 1 nM, medium at 3 hours"}, "[11]": {"conditions": "rat liver cells, IL-1β 1 nM, 3 hours"}},
  "data": [
    {"smiles": "COc1cc(O)c2c(c1O)OC(c1ccccc1)CC2=O", "note": "(centres unmarked) [Pa5′, 5,8-dihydroxy-7-methoxyflavanone]", "values": [
      {"measurement": "CINC-2α/β (%)", "setting": "[1]; 3 hours, (+) alone = 100.0", "result": 96.8, "unit": "%"},
      {"measurement": "CINC-2α/β chemiluminescence densitometry, Average", "setting": "[1]; medium at 3 hours", "result": 5839.6},
      {"measurement": "CINC-2α/β chemiluminescence densitometry, first value", "setting": "[1]; medium at 3 hours", "result": 5944.2},
      {"measurement": "CINC-2α/β chemiluminescence densitometry, second value", "setting": "[1]; medium at 3 hours", "result": 5735.0},
      {"measurement": "CINC-3 (%)", "setting": "[2]; 3 hours, (+) alone = 100.0", "result": 60.8, "unit": "%"},
      {"measurement": "CINC-3 chemiluminescence densitometry, Average", "setting": "[2]; medium at 3 hours", "result": 1846.9},
      {"measurement": "CINC-3 chemiluminescence densitometry, first value", "setting": "[2]; medium at 3 hours", "result": 1849.2},
      {"measurement": "CINC-3 chemiluminescence densitometry, second value", "setting": "[2]; medium at 3 hours", "result": 1844.7},
      {"measurement": "Fractakine (CX3CL1) (%)", "setting": "[3]; [9]", "result": 42.7, "unit": "%"},
      {"measurement": "Fractakine (CX3CL1) chemiluminescence densitometry, Average", "setting": "[3]; [10]", "result": 310.1},
      {"measurement": "Fractakine (CX3CL1) chemiluminescence densitometry, first value", "setting": "[3]; [10]", "result": 287.0},
      {"measurement": "Fractakine (CX3CL1) chemiluminescence densitometry, second value", "setting": "[3]; [10]", "result": 333.3},
      {"measurement": "induction of fractalkine (CX3CL1)", "setting": "[3]; [11]", "result": "strongly inhibit"},
      {"measurement": "sICAM-1 (CD54) (%)", "setting": "[4]; 3 hours, (+) alone = 100.0", "result": 68.4, "unit": "%"},
      {"measurement": "sICAM-1 (CD54) chemiluminescence densitometry, Average", "setting": "[4]; medium at 3 hours", "result": 257.3},
      {"measurement": "sICAM-1 (CD54) chemiluminescence densitometry, first value", "setting": "[4]; medium at 3 hours", "result": 250.3},
      {"measurement": "sICAM-1 (CD54) chemiluminescence densitometry, second value", "setting": "[4]; medium at 3 hours", "result": 264.3},
      {"measurement": "MIG (CXCL9) (%)", "setting": "[5]; 3 hours, (+) alone = 100.0", "result": 86.8, "unit": "%"},
      {"measurement": "MIG (CXCL9) chemiluminescence densitometry, Average", "setting": "[5]; medium at 3 hours", "result": 666.4},
      {"measurement": "MIG (CXCL9) chemiluminescence densitometry, first value", "setting": "[5]; medium at 3 hours", "result": 672.8},
      {"measurement": "MIG (CXCL9) chemiluminescence densitometry, second value", "setting": "[5]; medium at 3 hours", "result": 660.1},
      {"measurement": "VEGF (VEGF-A/Vasculotropin) (%)", "setting": "[6]; 3 hours, (+) alone = 100.0", "result": 109.7, "unit": "%"},
      {"measurement": "VEGF (VEGF-A/Vasculotropin) chemiluminescence densitometry, Average", "setting": "[6]; medium at 3 hours", "result": 896.7},
      {"measurement": "VEGF (VEGF-A/Vasculotropin) chemiluminescence densitometry, first value", "setting": "[6]; medium at 3 hours", "result": 875.1},
      {"measurement": "VEGF (VEGF-A/Vasculotropin) chemiluminescence densitometry, second value", "setting": "[6]; medium at 3 hours", "result": 918.4},
      {"measurement": "IL-17 (%)", "setting": "[7]; [9]", "result": 29.6, "unit": "%"},
      {"measurement": "IL-17 chemiluminescence densitometry, Average", "setting": "[7]; [10]", "result": 36.7},
      {"measurement": "IL-17 chemiluminescence densitometry, first value", "setting": "[7]; [10]", "result": 6.1},
      {"measurement": "IL-17 chemiluminescence densitometry, second value", "setting": "[7]; [10]", "result": 67.2},
      {"measurement": "induction of IL-17", "setting": "[7]; [11]", "result": "strongly inhibit"},
      {"measurement": "Thymus Chemokine (CXCL7) (%)", "setting": "[8]; [9]", "result": 23.1, "unit": "%"},
      {"measurement": "Thymus Chemokine (CXCL7) chemiluminescence densitometry, Average", "setting": "[8]; [10]", "result": 73.0},
      {"measurement": "Thymus Chemokine (CXCL7) chemiluminescence densitometry, first value", "setting": "[8]; [10]", "result": 62.8},
      {"measurement": "Thymus Chemokine (CXCL7) chemiluminescence densitometry, second value", "setting": "[8]; [10]", "result": 83.2},
      {"measurement": "induction of thymus chemokine (CXCL7)", "setting": "[8]; [11]", "result": "strongly inhibit"}
    ]}
  ]
}
